Source: the NIST ThermoML archive (doi:10.1016/j.jct.2011.04.018)
± gives the expanded uncertainty stated by the source.

Assay: activity coefficient (dimensionless); of the first substance listed, at infinite dilution; xn = mol fraction of the nth substance listed
Conditions: 101 kPa, Liquid, Chromatography, x1 = 0

| Compound | activity coefficient (308.15 K) | activity coefficient (318.15 K) | activity coefficient (328.15 K) | activity coefficient (338.15 K) | activity coefficient (348.15 K) | activity coefficient (358.15 K) | activity coefficient (368.15 K) | activity coefficient (378.15 K) |
| --- | --- | --- | --- | --- | --- | --- | --- | --- |
| C=CCCCCCCCC [1-decene] + O=S(=O)([N-]S(=O)(=O)C(F)(F)F)C(F)(F)F.OCCC[n+]1ccccc1 | 142 ± 10 | 128 ± 9 | 115 ± 8 | 104 ± 7 | 95.2 ± 6.5 | 86.6 ± 5.9 | 79.7 ± 5.5 | – |
| CCCOCCC [dipropyl ether] + O=S(=O)([N-]S(=O)(=O)C(F)(F)F)C(F)(F)F.OCCC[n+]1ccccc1 | 9.62 ± 0.66 | 9.45 ± 0.64 | 9.28 ± 0.63 | 9.12 ± 0.62 | 8.99 ± 0.61 | 8.87 ± 0.61 | 8.75 ± 0.6 | – |
| Cc1cccc(C)c1 [1,3-dimethylbenzene] + O=S(=O)([N-]S(=O)(=O)C(F)(F)F)C(F)(F)F.OCCC[n+]1ccccc1 | – | 3.58 ± 0.24 | 3.58 ± 0.24 | 3.59 ± 0.24 | 3.6 ± 0.25 | 3.6 ± 0.25 | 3.61 ± 0.25 | 3.62 ± 0.25 |
| Cc1ccccc1C [1,2-dimethylbenzene] + O=S(=O)([N-]S(=O)(=O)C(F)(F)F)C(F)(F)F.OCCC[n+]1ccccc1 | – | 3.11 ± 0.21 | 3.12 ± 0.21 | 3.13 ± 0.21 | 3.13 ± 0.21 | 3.14 ± 0.21 | 3.15 ± 0.21 | 3.15 ± 0.21 |
| CCc1ccccc1 [ethylbenzene] + O=S(=O)([N-]S(=O)(=O)C(F)(F)F)C(F)(F)F.OCCC[n+]1ccccc1 | – | 3.96 ± 0.27 | 3.93 ± 0.27 | 3.9 ± 0.27 | 3.87 ± 0.26 | 3.84 ± 0.26 | 3.82 ± 0.26 | 3.79 ± 0.26 |
| CCOCC [diethyl ether] + O=S(=O)([N-]S(=O)(=O)C(F)(F)F)C(F)(F)F.OCCC[n+]1ccccc1 | 2.71 ± 0.18 | 2.77 ± 0.19 | 2.82 ± 0.19 | 2.87 ± 0.2 | 2.91 ± 0.2 | 2.97 ± 0.2 | 3.01 ± 0.2 | – |
| Cc1ccc(C)cc1 [1,4-dimethylbenzene] + O=S(=O)([N-]S(=O)(=O)C(F)(F)F)C(F)(F)F.OCCC[n+]1ccccc1 | – | 3.58 ± 0.24 | 3.6 ± 0.25 | 3.61 ± 0.25 | 3.62 ± 0.25 | 3.63 ± 0.25 | 3.64 ± 0.25 | 3.65 ± 0.25 |
| CCO [ethanol] + O=S(=O)([N-]S(=O)(=O)C(F)(F)F)C(F)(F)F.OCCC[n+]1ccccc1 | – | 1.16 ± 0.07 | 1.11 ± 0.07 | 1.06 ± 0.07 | 1.02 ± 0.06 | 0.984 ± 0.062 | 0.949 ± 0.06 | 0.919 ± 0.058 |
| O [water] + O=S(=O)([N-]S(=O)(=O)C(F)(F)F)C(F)(F)F.OCCC[n+]1ccccc1 | – | 1.53 ± 0.1 | 1.42 ± 0.09 | 1.33 ± 0.09 | 1.24 ± 0.08 | 1.17 ± 0.07 | 1.1 ± 0.07 | 1.03 ± 0.06 |
| CCCCCCCC [octane] + O=S(=O)([N-]S(=O)(=O)C(F)(F)F)C(F)(F)F.OCCC[n+]1ccccc1 | 130 ± 9 | 116 ± 8 | 102 ± 7 | 91.1 ± 6.2 | 81.3 ± 5.6 | 73.6 ± 5 | 67.5 ± 4.6 | – |
| C#CCCCCCC [1-octyne] + O=S(=O)([N-]S(=O)(=O)C(F)(F)F)C(F)(F)F.OCCC[n+]1ccccc1 | 16.2 ± 1.1 | 15.5 ± 1.1 | 14.9 ± 1 | 14.2 ± 1 | 13.7 ± 0.9 | 13.2 ± 0.9 | 12.7 ± 0.9 | – |
| C1CCCC1 [cyclopentane] + O=S(=O)([N-]S(=O)(=O)C(F)(F)F)C(F)(F)F.OCCC[n+]1ccccc1 | 15.8 ± 1.1 | 14.6 ± 1 | 13.5 ± 0.9 | 12.5 ± 0.9 | 11.7 ± 0.8 | 11.1 ± 0.8 | 10.4 ± 0.7 | – |
